We go through five compounds from patent publication US10179914B2, “CDC25A inhibitor for the treatment of drug resistant cancer or for the prevention of tumor relapse” (INSERM (INSTITUT NATIONAL DE LA SANTÉ ET DE LA RECHERCHE …, priority 2014, dated 2019).

Assay [1] concerns CDC25A. The assay can be described thus: CDC25A protein level by western blot. The assay is classed as cell-based, human. The note with it: for CDC25A protein level: 2 hours. As for the experimental part:
(a) MV4-11 (left panel) and MOLM-14 (right panel) FLT3-ITD expressing cells were treated for 2 hours with FLT3 inhibitor III (100 nM), and the protein levels of CDC25A, CDC25B, CDC25C, Cyclin A, Cyclin D1 and p27Kip1 were analyzed by western blot. (b) MOLM-14 (FLT3-ITD postive), KG1 and HL-60 (FLT3 wt positive) and K562 (FLT3 negative) cell lines were treated for 2 hours with FLT3 inhibitor III and the level of CDC25A was analyzed by western blot. Actin was used as a loading control.
(a) MV4-11 (left panel) and MOLM-14 (right panel) cells were treated for 2 hours with STAT5 inhibitor (100 nM). CDC25A, Pim1, and STAT5 protein and phosphorylation levels were analyzed by western blot. (b) MV4-11 and MOLM-14 cells were transfected for 24 hours with STAT5A/B siRNA and the impact on CDC25A protein level was analyzed by western blot. […] Actin was used as a loading control in these experiments. ns: non specific.
(a) MV4-11 cells were first treated by cycloheximide (50 μg/mL) for 90 minutes in order to completely down regulate CDC25A. […] The FLT3 inhibitor was added 30 minutes before medium wash. This western blot is representative of three independent experiments. […] (b) CDC25A mRNA expression was measured by quantitative RT-PCR after FLT3 inhibition for 2 hours (100 nM). […] (c) MV4-11 cells were treated with cycloheximide (50 μg/mL) for the indicated times. FLT3 inhibitor III (100 nM) was added 30 minutes before cycloheximide treatment, and left in the medium. This western blot is representative of three independent experiments.
Cell lines and reagents. […] Concerning MOLM-14 cell line, the presence of a monoallelic 21 bp FLT3-ITD mutation and of an MLL-containing ins(11; 9)(q23;p22p23) were verified (Hematology laboratory of Toulouse University Hospital, Prof E. Delabesse and Dr I. Luquet). KG1 and HL-60 (ACC-14 and ACC-3, DSMZ) cell lines were grown in Iscove's Modified Dulbecco's Medium (IMDM, Gibco) plus 20% FBS. All cells were grown in the presence of 100 units/ml of penicillin and streptomycin (Invitrogen) at 37° C. and 5% CO2.
siRNA. The MV4-11 cell line was transfected with the Amaxa nucleofection technology (Lonza, Koeln, Germany). […] Twenty-four or forty-eight hours after transfection, cells were counted (trypan blue staining), and western blotting was performed.
Western blot. 2×10^6 cells were usually lysed in 100 μL of NuPAGE® LDS Sample Buffer (Novex, Life Technologies, Carlsbad, Calif., USA), sonicated for 15 seconds, and boiled for 3 minutes. Proteins were then resolved on NuPAGE® 4-12% Bis-Tris Gels and transferred to nitrocellulose membrane. Saturation of the membrane was done for 1 hour in Tris Buffer Saline with Tween 0.1% (TBS-T) containing 5% non-fat milk or 5% bovine serum albumin. Membranes were blotted with proper antibodies overnight at 4° C., washed thrice with TBS-T, and incubated for 30 minutes with HRP-conjugated secondary antibody (Promega, Madison, Wis., USA).

Assay [2] addresses Cdc25A (Homo sapiens, UniProt P30304). The note with it: cited from earlier work.
For another assay, the target named is Cdc25C (Homo sapiens, UniProt P30307). Particulars: cited from earlier work.
Assay [3] concerns human cell lines (tumor cell proliferation). The note with it: cited from earlier work.
For another assay, the target named is T1, Cdc25B (Homo sapiens, UniProt P30305).
T1 sequence (P30305 1-580): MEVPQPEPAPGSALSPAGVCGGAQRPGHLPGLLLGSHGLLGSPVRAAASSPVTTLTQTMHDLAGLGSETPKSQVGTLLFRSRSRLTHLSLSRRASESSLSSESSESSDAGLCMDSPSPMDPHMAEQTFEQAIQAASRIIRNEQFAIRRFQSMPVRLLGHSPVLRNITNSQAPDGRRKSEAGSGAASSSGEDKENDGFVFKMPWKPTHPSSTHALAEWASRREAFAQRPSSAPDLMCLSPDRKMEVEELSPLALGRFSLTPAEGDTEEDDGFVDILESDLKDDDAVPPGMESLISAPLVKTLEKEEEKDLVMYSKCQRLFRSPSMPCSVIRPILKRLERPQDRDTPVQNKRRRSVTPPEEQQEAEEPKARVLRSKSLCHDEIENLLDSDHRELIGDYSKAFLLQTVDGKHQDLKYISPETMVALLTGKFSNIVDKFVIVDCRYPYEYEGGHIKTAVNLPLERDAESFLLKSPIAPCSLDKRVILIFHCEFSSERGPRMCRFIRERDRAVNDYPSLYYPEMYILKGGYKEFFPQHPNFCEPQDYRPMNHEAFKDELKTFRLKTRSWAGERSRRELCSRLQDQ
Particulars: cited from earlier work.

The subject of a further assay is Mia-Paca-2 tumors. The note with it: active after oral administration; cited from earlier work.
The test system of the next assay is CDC25A mRNA. The assay can be described thus: CDC25A mRNA by quantitative RT-PCR. The assay is classed as cell-based, human. Particulars: two hours, 100 nM, MOLM-14 cells. On the procedure:
(a) MV4-11 cells were first treated by cycloheximide (50 μg/mL) for 90 minutes in order to completely down regulate CDC25A. Cells were then placed in normal culture conditions in the presence (lower panel) or the absence (upper panel) of FLT3 inhibitor (100 nM), and western blot analysis of CDC25A was performed at the indicated times. The FLT3 inhibitor was added 30 minutes before medium wash. This western blot is representative of three independent experiments. […] (b) CDC25A mRNA expression was measured by quantitative RT-PCR after FLT3 inhibition for 2 hours (100 nM). […] (c) MV4-11 cells were treated with cycloheximide (50 μg/mL) for the indicated times. FLT3 inhibitor III (100 nM) was added 30 minutes before cycloheximide treatment, and left in the medium. This western blot is representative of three independent experiments.
Quantitative RT-PCR. Total RNA was extracted by RNeasy Kit (Qiagen) according to the manufacturer. RNA quality and purity was assessed by using the Agilent RNA 6000 Nano kit (Agilent Technologies, Santa Clara, Calif., USA). cDNA was generated with the SuperScript III First-Strand Synthesis System for RT-PCR (Invitrogen) following the manufacturer instructions. […] Results were analyzed with the LightCycler®480 software release 1.5.0 SP4 using the conventional ΔΔCt method.

A further assay concerns MOLM-14 and MV4-11 cells. The assay can be described thus: Differentiation of FLT3-ITD AML cell lines (surface markers, morphology). The assay is classed as cell-based, human. Particulars: another CDC25 inhibitor. On the procedure: (a-b) MOLM-14 and MV4-11 cells were treated for different times with IRC-083864 (100 nM and 200 nM) and the expression of the cell surface markers CD11b, CD14 and CD15 were followed by flow cytometry analysis. (c) MOLM-14 and MV4-11 cells were treated for different times with IRC-083864 (100 nM) and morphological changes were estimated by microscopy after cells were cytospun and stained at days 8 and 13. Original magnification ×100. (d) MOLM-14 cells were treated for different times with IRC-083864 (100 nM) and c-myc expression as well as C/EBPα phosphorylation on serine 21 were analyzed by western blot at day 1, and C/EBPε expression after 6 days of treatment. (e) MOLM-14 cells were transfected with CDC25A shRNA The expression of the cell surface markers CD11b, CD14 and CD15 were followed by flow cytometry analysis at day 3 and 6 (upper panel), and their morphology was analyzed by microscopy after 6 days (lower panel). Original magnification ×100. (f) MOLM-14 cells were transfected with CDC25A siRNA, and their morphology was analyzed by microscopy after 3 days (upper panel). Original magnification ×100. The efficiency of CDC25A siRNA was assessed by western blot analysis (lower panel).
Lentiviral infections. To generate lentiviral vectors expressing CDC25A protein, sequences were cloned into the pTrip-TAL-Ires-GFP lentiviral vector. We used 293-T packaging cells, co-transfected with lentiviral protein (GAG, POL, and ENV) encoding plasmids, and plasmids containing a control or CDC25A genes, separately. Supernatants containing lentivirus were collected 48 h after transfection, during 3 consecutive days. MOLM-14 cells were plated at 5×10^5 cells in 200 μl in serum-free medium and 5 μl of lentiviral supernatant was added during 3 h. Cells were then grown in 10% FBS RPMI medium.
Flow cytometry. Apoptotic cells were detected with Annexin V-FITC detection kit from BD Pharmingen (San Diego, Calif., USA) according to the manufacturer instructions. To evaluate AML cell differentiation, cells were stained for 30 min with the following anti-human monoclonal antibodies: CD11b-PE (Beckman Coulter), CD14-FITC (BD Biosciences), CD15-APC (BD Biosciences). For patient samples, additional hCD45-APC-H7 (BD Biosciences), Annexin V-Pacific Blue (BioLegend, San Diego, Calif., USA) and 7-AAD (Sigma) were used; and for bone marrow mice cells, additional CD33-FITC, CD44-PE Cy7, mCD45-PerCP Cy 5.5, CD14-Alexa 700 were used. Data were collected on a LSRII or a LSRFortessa cytometer (BD Biosciences), and analyzed with FlowJo software. A minimum of 10,000 events was collected.
Morphological examination. […] were spun at 500 rpm for 5 minutes onto glass slides and May-Grünwald-Giemsa stained at the Toulouse University Hospital hematology laboratory.

Assay [4] concerns FLT3-wild type primary AML samples. Put plainly: Differentiation of FLT3 wild-type primary AML samples. The note with it: same conditions. Type of assay: cell-based, human. The source says:
Patient samples. Patient AML samples were obtained after informed consent in accordance with the Declaration of Helsinki and stored at the HIMIP collection. According to the French law, HIMIP collection has been declared to the Ministry of Higher Education and Research (DC 2008-307 collection 1) and obtained a transfer agreement (AC 2008-129) after approbation by ethical committees (Comité de Protection des Personnes Sud-Ouest et Outremer II and APHP ethical committee). Clinical and biological annotations of the samples have been declared to the CNIL (Comité National Informatique et Libertés i.e. Data processing and Liberties National Committee). Frozen cells were thawed in IMDM medium with 20% FBS and immediately processed for treatment. All patients were diagnosed at the Department of Hematology of Toulouse University Hospital.
Co-cultures. […]
Flow cytometry. Apoptotic cells were detected with Annexin V-FITC detection kit from BD Pharmingen (San Diego, Calif., USA) according to the manufacturer instructions. […] Data were collected on a LSRII or a LSRFortessa cytometer (BD Biosciences), and analyzed with FlowJo software. […]

Another assay relates to human Hep 3B tumor cells. The note with it: read-out: IC50 growth of human Hep 3B tumor cells; cited from earlier work.
Assay [5] concerns transplanted rat hepatoma cells (Fisher F344). Particulars: delivered intraperitoneally; cited from earlier work.

Cdc25A, sequence (P30304 whole entry): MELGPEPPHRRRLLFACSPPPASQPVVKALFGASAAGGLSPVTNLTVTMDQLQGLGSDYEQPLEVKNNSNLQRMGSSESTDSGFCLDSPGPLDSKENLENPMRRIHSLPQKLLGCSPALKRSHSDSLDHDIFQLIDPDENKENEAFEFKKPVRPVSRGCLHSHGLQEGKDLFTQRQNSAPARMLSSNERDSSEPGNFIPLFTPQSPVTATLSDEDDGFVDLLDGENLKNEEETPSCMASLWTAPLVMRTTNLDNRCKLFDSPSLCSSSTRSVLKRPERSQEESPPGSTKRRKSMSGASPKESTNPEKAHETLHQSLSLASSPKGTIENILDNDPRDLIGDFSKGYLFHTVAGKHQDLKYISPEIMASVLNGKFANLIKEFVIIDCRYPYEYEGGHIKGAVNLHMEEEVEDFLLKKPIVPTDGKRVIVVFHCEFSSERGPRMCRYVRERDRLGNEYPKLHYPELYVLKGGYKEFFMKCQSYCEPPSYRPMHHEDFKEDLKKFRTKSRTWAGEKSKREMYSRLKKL
Cdc25C, sequence (P30307 whole entry): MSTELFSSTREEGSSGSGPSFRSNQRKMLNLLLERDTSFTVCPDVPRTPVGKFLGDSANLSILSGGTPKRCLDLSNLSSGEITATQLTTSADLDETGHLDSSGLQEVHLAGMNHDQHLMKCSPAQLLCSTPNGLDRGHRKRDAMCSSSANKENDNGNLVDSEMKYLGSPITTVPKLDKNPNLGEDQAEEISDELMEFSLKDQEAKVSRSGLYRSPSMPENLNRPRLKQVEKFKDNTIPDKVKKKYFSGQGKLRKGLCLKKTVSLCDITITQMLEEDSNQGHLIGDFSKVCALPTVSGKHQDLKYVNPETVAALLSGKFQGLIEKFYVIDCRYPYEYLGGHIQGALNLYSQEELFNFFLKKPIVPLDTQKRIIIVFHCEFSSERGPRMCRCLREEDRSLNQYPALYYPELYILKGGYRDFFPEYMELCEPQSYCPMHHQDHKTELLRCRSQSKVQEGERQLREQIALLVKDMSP

On to `CC(C)(C)c1cc(NC(=O)Nc2ccc(-c3cn4c(n3)sc3cc(OCCN5CCOCC5)ccc34)cc2)no1` [AC220, quizartinib], for which the CDC25A protein level entry in the assay on CDC25A [1] (MV4-11 and MOLM-14 cells) is “induced CDC25A down-regulation”.
With `Cc1nc2c(s1)C(=O)C=C(NCCN(C)C)C2=O` [BN82685, reference compound], the IC50 is 250 nM at Cdc25A [2], 171 nM at Cdc25C and 250 nM at Cdc25B. Also, in [3], the “growth inhibition in presence of classical resistance mechanisms (drug efflux pumps, P-glycoprotein, multi-drug resistance proteins)” value was “unaffected”. Also, in assay [3] (treatment time 1 h), the “duration of proliferation inhibition after short treatment” value is 96 h. For the same compound, the “growth of Mia-Paca-2 tumors xenografted into nude mice” value in the assay with Mia-Paca-2 tumors is “inhibited the growth”.
Turning to `c1ccc(-c2cnc(Nc3ccc(OCCN4CCCC4)cc3)s2)cc1` [FLT3 inhibitor III], the CDC25A protein level entry in the assay on CDC25A [1] (KG1, HL-60 (FLT3-wild type) and K562 (FLT3 non-expressing) cells) is “did not modify”; in the assay on CDC25A [1] (MV4-11 and MOLM-14 cells), “induced CDC25A down-regulation”. The “stability of CDC25A protein (half-life with cycloheximide)” value with CDC25A [1] (cycloheximide 50 μg/mL, inhibitor 100 nM) is on record as “did not significantly modify”. Further, the “accumulation of CDC25A protein (rate of synthesis)” value in the assay with CDC25A [1] (time course, 100 nM, FIG. 3a) was “significantly decreased”. Further, the “CDC25A mRNA level” value in the assay on CDC25A mRNA is given as “significantly reduced”.
In the case of `O=C1C(SCCO)=C(SCCO)C(=O)c2ccccc21` [NSC-95397, reference compound], in the assay on MOLM-14 and MV4-11 cells, the “CD11b, CD14 and CD15 markers expression” value is on record as “modifications”; the nuclear morphology entry is “nuclear morphological changes”. Besides, the “differentiation of FLT3-wild type samples” value in assay [4] is reported as “no evidence of differentiation”.
For `O=C1C(SCCO)=C(SCCO)C(=O)N1c1ccc(-c2ccccc2)cc1` [PM20], the IC50 in the assay with human Hep 3B tumor cells was 700 nM. Further, the “growth of transplanted rat hepatoma cells in vivo” value in assay [5] is recorded as “inhibits the growth”.
